Test results as given in patent US8685974B2 (Bayer CropScience AG, priority 2009, dated 2014).
“And” between values parts separate entries of the source, which are not always exact repeats. Equal values may be shown once. Read-outs that look alike come from different tables or passages of the source. Marks after values point to notes of the source that are not given here.

What was measured:
Alternaria solani = assay: Alternaria test (tomato) / protective; assay type: in vivo; details: 500 ppm active compound, protective spray, evaluated 7 days after inoculation
Procedure, shortened: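 Efficacy scored 7 days after inoculation, where 100% means no infection and 0% matches the untreated control. Test plants were young tomatoes given a protective spray at the stated rate, compound dissolved in DMF plus emulsifier and diluted with water. Incubation at 20° C, 96% relative humidity.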

Leptosphaeria nodorum = Leptosphaeria nodorum test (wheat) / protective; assay type: in vivo; details: 500 ppm active compound, protective spray, evaluated 7-9 days after inoculation
Procedure: Leptosphaeria nodorum Test (Wheat)/Protective
Solvent: 49 parts by weight of N,N-dimethylformamide
Emulsifier: 1 part by weight of alkylaryl polyglycol ether
To produce a suitable preparation of active compound, 1 part by weight of active compound is mixed with the stated amounts of solvent and emulsifier, and the concentrate is diluted with water to the desired concentration.
To test for protective activity, young wheat plants are sprayed with the preparation of active compound at the stated application rate. […] The plants are then placed in a greenhouse at 90% rel. atmospheric humidity and a temperature of 22° C.
Evaluation is carried out 7-9 days after the inoculation. 0% means an efficacy which corresponds to that of the control, whereas an efficacy of 100% means that no infection is observed.

Pyrenophora teres = assay: In vivo test on Pyrenophora teres (barley net blotch); details: dose of 500 ppm; barley plants; grading 12 days after contamination
Procedure, shortened: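 Scoring is done 12 days after spore spraying (12,000 spores/ml, from 12-day-old culture), relative to water-treated controls. Inoculation follows by 24 h a preventive spray of the aqueous-diluted formulation onto 1-leaf Plaisant barley raised at 12° C.; infection holds 24 h at about 20° C./100% RH, then 12 days at 80% RH.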

Fusarium graminearum = assay type: cell-based
[1] = pH 2.7
[2] = logP by HPLC on reversed phase columns, method [a] (pH 2.3); assay type: physicochemical; details: method [a]: pH 2.3, 0.1% phosphoric acid and acetonitrile as eluent; main isomer

Row | SMILES | efficacy (Alternaria solani) | efficacy (Leptosphaeria nodorum) | protection (Pyrenophora teres) | % Inhibition of fungal growth at 50 μM (Fusarium graminearum; 50 μM) | % Inhibition of DON/AcDON at 50 μM (Fusarium graminearum; 50 μM, 7 days at 28° C.) | log p [1] | % Inhibition of DON/AcDON at 50 μM (Fusarium graminearum) | log p [2] | logP value of the minor isomer [1]
1 | CCn1cc(-c2ccnc(NC(=O)C(C)C)c2)c(-c2ccc(Cl)s2)n1 [Example 285] | 95% | 80% | 95% | 90% | 99% | 2.77^[b] | – | – | –
2 | CCn1cc(-c2ccnc(NC(=O)CC(C)C)c2)c(-c2ccc(Cl)s2)n1 [Example 286] | 90% | 90% | 80% | 68% | 99% | 3.15^[b] | – | – | –
3 | CC(=O)Nc1cc(-c2cn(C)nc2-c2ccc(Cl)s2)ccn1 [Example 287] | 90% | 80% | 95% | 94% | 99% | 1.79^[b] | – | – | –
4 | CC(C)C(=O)Nc1cc(-c2cn(C)nc2-c2ccc(Cl)s2)ccn1 [Example 288] | 90% | 70% | 95% | 92% | 99% | 2.39^[b] | – | – | –
5 | CC(=O)Nc1cc(-c2cnn(/C=C/F)c2-c2ccc(Cl)s2)ccn1 [Example 292] | 90% | 70% | 95% | 45% | 100% | 2.84^[b] | – | – | –
6 | CC(=O)N(C(C)=O)c1cc(-c2cn(C(C)C)nc2-c2ccc(Cl)s2)ccn1 [Example 304] | 95% | 80% | 95% | 87% and 90% | – | 3.33^[b] | 100% | – | –
7 | CCn1cc(-c2ccnc(N)c2)c(-c2ccc(Cl)s2)n1 [Example 307] | 80% and 94% | 78% | 80% and 95% | 45% | 80% | 1.54^[b] | – | – | –
8 | CCC(C)n1cc(-c2ccncc2)c(-c2ccc(Br)s2)n1 (stereo not shown) [Example 354] | 90% | 70% | 95% | 97% | 99% | 2.15^[b] | – | – | –
9 | CC(C)n1cc(-c2ccncc2)c(-c2ccc(Br)s2)n1 [Example 387] | 100% | 90% | 80% | 93% | 99% | 1.88^[b] | – | – | –
10 | CC(C)Cn1cc(-c2ccnc(O)n2)c(-c2ccc(Cl)s2)n1 [Example 398] | – | – | – | – | – | – | – | 2.62^[a] | –
11 | FC(F)(F)c1ccc(-c2c(-c3ccncc3)cnn2C2CCCCO2)s1 (stereo not shown) [Example 403] | – | – | – | – | – | – | – | 1.94^[a] | –
12 | CC(C)Cn1cc(-c2ccncc2)c(-c2ccc(Br)s2)n1 [Example 405] | 94% | 94% | 70% | 90% | 99% | 2.1^[b] | – | – | (1.98)
13 | CC(C)Cn1cc(-c2ccncc2)c(-c2cccs2)n1 [Example 407] | 90% | 94% | 90% | 99% | 100% | 1.5^[b] | – | – | –
14 | CCC(C)n1nc(C2CC2)c(-c2ccncc2)c1-c1ccc(Cl)s1 (stereo not shown) [Example 415] | – | – | – | – | – | – | – | 2.73^[a] | –
15 | CC(C)n1nc(-c2ccc(Cl)s2)c(-c2ccncc2)c1C1CC1 [Example 418] | – | – | – | – | – | – | – | 2.44^[a] | –
16 | CC#Cc1[nH]nc(-c2ccc(Cl)s2)c1-c1ccncc1 [Example 419] | – | – | – | – | – | – | – | 1.44^[a] | –
17 | CC(C)Cn1cc(-c2cc(O)ncn2)c(-c2ccc(Cl)s2)n1 [Example 422] | – | – | – | – | – | – | – | 2.84^[a] | –
